Results on one compound are retold here after PMC12829161 (BMC Microbiology, 2025).

Each structure is given as a SMILES string. Counter-ions that a name gives are not always drawn. Bridge positions count the residues as written; N and C are the ends. Square brackets hold non-standard residues; d marks the D form. Peptide text beside a SMILES is read from it. * marks the point of attachment. X1 = CC[C@H](C)CCCCC(=O)*; Dab = NCC[C@H](N)C(=O)O

Holding throughout (type): cell-based, Pseudomonas aeruginosa
The test system of assay [1] is PA14 biofilm.
The subject of assay [2] is PA14 biofilm. This is another data set of the same source.
Assay [3] relates to PAO1 biofilm.
Assay [4] concerns PAO1 biofilm. This is another data set of the same source.

On to `CC[C@H](C)CCCCC(=O)N[C@@H](CCN)C(=O)N[C@H](C(=O)N[C@@H](CCN)C(=O)N[C@H]1CCNC(=O)[C@H]([C@@H](C)O)NC(=O)[C@H](CCN)NC(=O)[C@H](CCN)NC(=O)[C@H](CC(C)C)NC(=O)[C@@H](Cc2ccccc2)NC(=O)[C@H](CCN)NC1=O)[C@@H](C)O` [Polymyxin B, Polymyxin B sulfate] (X1-[Dab]T[Dab][Dab][Dab][dF]L[Dab][Dab]T; lactam 4-C (inferred); N-terminus assumed), for which, in assay [1], the “Reduction of total growth (OD600) vs untreated control” value was “at least 70%”. In addition, in assay [2], the “Biofilm inhibition (CV) at sub-MICs and MICs vs untreated control” value is recorded as “no significant biofilm inhibition”; the “Biofilm viability (TTC), % of untreated control” value is “approximately 6 (±6) %”; the “Concentration at which total bacterial growth (OD600) is significantly inhibited” value is given as 2 µg/mL; the “Increase in bacterial cells (total growth, OD600)” value was “No statistically significant increase”. For the same compound, the “Reduction of total growth (OD600) vs untreated control” value in assay [3] was “at least 70%”. In assay [4], the “Biofilm viability (TTC), % of untreated control” value is given as 65 (± 20) %; the “Concentration at which total bacterial growth (OD600) is significantly inhibited” value came out at 4 µg/mL; the “Increase in biofilm mass (CV) vs untreated control” value was “over 200%”; the “Total bacterial growth (OD600), % of untreated control” value is reported as “approximately 170 (± 48) %”.
